# Source: patent US20240285548A1, “AGENT FOR PREVENTION AND/OR TREATMENT OF COGNITIVE IMPAIRMENT” (NATIONAL CEREBRAL AND CARDIOVASCULAR CENTER, priority 2022, published 2024)
# Columns and labels:
# [1] = test system: patients with asymptomatic moderate or severe carotid artery stenosis/occlusion; assay: Alzheimer's Disease Assessment Scale-Cognitive subscale 13 (ADAS-Cog), change during observation period; format: in vivo, human; details: for β, resveratrol intake vs ADAS-Cog delayed recall change / β, resveratrol intake vs ADAS-Cog memory domain change / β, resveratrol intake vs ADAS-Cog total change: 79 patients, linear regression
# Method: (§1) Subjects were patients with asymptomatic moderate or severe carotid artery stenosis/occlusion who visited the National Cerebral and Cardiovascular Center in Japan from July 2020 to August 2021 and who were taking or not taking trans-resveratrol in an amount of 30 mg/day. The inclusion criteria were as follows: (1) patients with asymptomatic moderate or severe carotid artery stenosis/occlusion who presented with a peak systolic velocity of 130 cm/s or more at a stenotic lesion on carotid ultrasonography (corresponding to a stenotic diameter of >50%) and who underwent test (2) and/or (3); (2) patients who underwent cognitive function tests (Alzheimer's Disease Assessment Scale-Cognitive subscale 13 (ADAS-Cog) and Montreal Cognitive Assessment (MoCA)) longitudinally twice; (3) patients who also underwent ^15O-gas positron emission tomography (PET) longitudinally twice in a similar manner. The primary outcome is a comparison of the amounts of change in ADAS-Cog during the observation period (differential analysis). The secondary outcomes are (1) a comparison of the amounts of change in MoCA during the observation period (differential analysis), and (2) a comparison of the amounts of change in cerebral blood flow on ^15O -gas PET (differential analysis). This study was initiated after receiving approval from the Research Ethics Review Committee of the National Cerebral and Cardiovascular Center (Research Project Number: R20113). In Example 1 above, the 82 subject patients included patients who were tested for both change in cognitive function and change in cerebral blood flow, as well as patients who were tested for only either change in cognitive function or change in cerebral blood flow. Therefore, based on the above results, the same analysis as in Example 1 was performed again on 79 patients who were tested for both change in cognitive function and change in cerebral blood flow from among the 82 patients. […] The baseline mean total MoCA scores were 23.6±3.6 in the non-RES group and 23.7±3.6 in the RES group. Further, the mean total ADAS-Cog scores were 14.6±5.4 in the non-RES group and 15.8±7.2 in the RES group. The mean observation periods were 244.8±86.9 and 221.2±61.9 days, respectively (p=0.18). The baseline scores were under the category of mild cognitive impairment (MCI) (Table 4). For the 79 patients, the amount of change in MoCA and ADAS-Cog scores was examined to investigate changes in cognitive function associated with administration of resveratrol. […] According to ADAS-Cog, a significant association was found with cognitive function improvement in the RES group in terms of delayed recall (0.5±1.6 VS. −0.9±1.8; p=0.001), memory domain (0.4±3.3 VS. −1.6±3.1; p=0.007), and total score (0.5±3.7 vs. −1.5±3.4; p=0.019). Therefore, after adjusting for age, gender, hypertension, diabetes, dyslipidemia, and coronary artery disease, a multivariate linear regression model analysis was performed. Resveratrol intake was an independent predictor of improvement in spatial cognitive and executive functions (β=0.26, 95% confidence interval [CI]: 0.062-1.15, p=0.03) and memory (memory domain: β=−0.26, 95% CI: −3.23 to −0.15, p=0.032; delayed recall: β=−0.37, 95% CI: −2.16 to −0.54, p=0.001) (Table 5). Accordingly, resveratrol may have contributed to improvement in the visuospatial cognitive function, executive function, and memory.
# [2] = test system: patients with asymptomatic moderate or severe carotid artery stenosis/occlusion; assay: Adverse events during long-term resveratrol intake; format: in vivo, human; details: Example 2, 30 mg/day
# Source text: The baseline mean total MoCA scores were 23.6±3.6 in the non-RES group and 23.7±3.6 in the RES group. Further, the mean total ADAS-Cog scores were 14.6±5.4 in the non-RES group and 15.8±7.2 in the RES group. The mean observation periods were 244.8±86.9 and 221.2±61.9 days, respectively (p=0.18). The baseline scores were under the category of mild cognitive impairment (MCI) (Table 4).
# To identify the reason associated with significant improvements in the visuospatial cognitive function, executive function, and memory in the RES group, cerebral blood flow was measured. Initially, the cerebral blood flow change in each entire hemisphere was analyzed. […] To examine the changes in detail, the cerebral blood flow was analyzed in terms of the frontal lobe, basal ganglia, and thalamus, which govern the visuospatial cognitive and executive functions, and memory. Longitudinally, long-term resveratrol intake was associated with a significant increase in cerebral blood flow in the right frontal lobe (non-RES group: 0.001±0.037, RES group: 0.019±0.033; p=0.027)). […] Therefore, long-term resveratrol intake may contribute not only to improvement of cognitive function but also to increase in cerebral blood flow.
# [3] = test system: human Alzheimer's patients; details: 500 mg of resveratrol; NPL 5; cited from earlier work
# [4] = test system: carotid artery occlusion model mice; details: NPL 3; cited from earlier work
# [5] = test system: patients with asymptomatic moderate or severe carotid artery stenosis/occlusion; assay: 15O-gas PET: cerebral blood flow, cerebral oxygen metabolic rate, cerebral oxygen uptake rate; format: in vivo, human; parameters: Cerebral blood flow change: entire right hemisphere / Cerebral blood flow change: entire left hemisphere / Cerebral blood flow change: right frontal lobe / Cerebral blood flow change: right callosomarginal artery area / Cerebral blood flow change: left callosomarginal artery area / Cerebral blood flow change: left lenticular nucleus / Cerebral blood flow change: left thalamus: unit not given here; details: for β, resveratrol intake vs cerebral blood flow change: Frontal circulation area / β, resveratrol intake vs cerebral blood flow change: Left callosomarginal artery area / β, resveratrol intake vs cerebral blood flow change: Left lenticular nucleus / β, resveratrol intake vs cerebral blood flow change: Right callosomarginal artery area / β, resveratrol intake vs cerebral blood flow change: Right precentral artery / β, resveratrol intake vs cerebral blood flow change: Thalamus, Left / β, resveratrol intake vs cerebral blood flow change: Thalamus, Right: 79 patients, linear regression
# Method: Subjects were patients with asymptomatic moderate or severe carotid artery stenosis/occlusion who visited the National Cerebral and Cardiovascular Center in Japan from July 2020 to August 2021 and who were taking or not taking trans-resveratrol in an amount of 30 mg/day. The inclusion criteria were as follows: (1) patients with asymptomatic moderate or severe carotid artery stenosis/occlusion who presented with a peak systolic velocity of 130 cm/s or more at a stenotic lesion on carotid ultrasonography (corresponding to a stenotic diameter of >50%) and who underwent test (2) and/or (3); (2) patients who underwent cognitive function tests (Alzheimer's Disease Assessment Scale-Cognitive subscale 13 (ADAS-Cog) and Montreal Cognitive Assessment (MoCA)) longitudinally twice; (3) patients who also underwent ^15O-gas positron emission tomography (PET) longitudinally twice in a similar manner. The primary outcome is a comparison of the amounts of change in ADAS-Cog during the observation period (differential analysis). The secondary outcomes are (1) a comparison of the amounts of change in MoCA during the observation period (differential analysis), and (2) a comparison of the amounts of change in cerebral blood flow on ^15O -gas PET (differential analysis). This study was initiated after receiving approval from the Research Ethics Review Committee of the National Cerebral and Cardiovascular Center (Research Project Number: R20113). All PET images were anatomically standardized using linear and nonlinear transformations with SPM2 to ensure that the brain images of all patients had the same anatomical format, and the cerebral blood flow was quantified using 3DSRT (PDRadiopharma Inc., Tokyo, Japan). Each hemisphere was divided into twelve ROI segments, grouped according to the arterial supply: callosomarginal artery area, pericallosal artery area, precentral artery area, central artery area, angular artery area, parietal lobe, temporal lobe, occipital lobe, hippocampus, lenticular nucleus, thalamus, and cerebellum. The frontal circulation areas were defined to be the callosomarginal artery area, pericallosal artery area, precentral artery area, and central artery area. In quantifying the relative cerebral blood flow, counts under each ROI were normalized to an average cerebral blood flow count within the bilateral cerebellum. […] Using 3D-SRT (FUJIFILM RI Pharma, Tokyo, Japan), the difference in the amount of change was analyzed (for the RES group, the difference between the cerebral blood flow before RES administration (relative to cerebellum) and the cerebral blood flow after RES administration (relative to cerebellum); for the non-RES group, the cerebral blood flow at intervals of 6 months to 1 year (relative to cerebellum)). […] In Example 1 above, the 82 subject patients included patients who were tested for both change in cognitive function and change in cerebral blood flow, as well as patients who were tested for only either change in cognitive function or change in cerebral blood flow. Therefore, based on the above results, the same analysis as in Example 1 was performed again on 79 patients who were tested for both change in cognitive function and change in cerebral blood flow from among the 82 patients. To identify the reason associated with significant improvements in the visuospatial cognitive function, executive function, and memory in the RES group, cerebral blood flow was measured. Initially, the cerebral blood flow change in each entire hemisphere was analyzed. […] To examine the changes in detail, the cerebral blood flow was analyzed in terms of the frontal lobe, basal ganglia, and thalamus, which govern the visuospatial cognitive and executive functions, and memory. Longitudinally, long-term resveratrol intake was associated with a significant increase in cerebral blood flow in the right frontal lobe (non-RES group: 0.001±0.037, RES group: 0.019±0.033; p=0.027)). […]
# [6] = test system: patients with asymptomatic moderate or severe carotid artery stenosis/occlusion; assay: Montreal Cognitive Assessment (MoCA), change during observation period; format: in vivo, human; details: for β, resveratrol intake vs MoCA visuospatial cognitive function/executive function change: 79 patients, linear regression
# Method: as §1
# [7] = Example 1, RES group 37 of 82 patients, 30 mg/day
# [8] = Example 2, multivariate analysis
# [9] = Example 2, RES group n = 36 of 79 patients, 30 mg/day
# [10] = Example 1, relative to cerebellum, before vs after RES administration, 30 mg/day
# [11] = Example 2, multivariable analysis
# [12] = Example 2, univariable analysis
compound,measurement,setting,value
"Oc1ccc(/C=C/c2cc(O)cc(O)c2)cc1 [resveratrol, 3,4′, 5-trihydroxy-trans-stilbene]",Amount of change in ADAS-Cog: Total,[1]; [7],−1.48 ± 3.4
same,Amount of change in ADAS-Cog: delayed recall,[1]; [7],−0.89 ± 1.7
same,Amount of change in ADAS-Cog: memory domain,[1]; [7],−1.65 ± 3.0
same,"β, resveratrol intake vs ADAS-Cog delayed recall change",[1]; [8],−0.37
same,"β, resveratrol intake vs ADAS-Cog memory domain change",[1]; [8],−0.26
same,"β, resveratrol intake vs ADAS-Cog total change",[1]; [8],−0.18
same,"β, resveratrol intake vs ADAS-Cog delayed recall change","[1]; Example 2, univariate analysis",−0.37
same,"β, resveratrol intake vs ADAS-Cog memory domain change","[1]; Example 2, univariate analysis",−0.30
same,"β, resveratrol intake vs ADAS-Cog total change","[1]; Example 2, univariate analysis",−0.26
same,Amount of change in ADAS-Cog: delayed recall,[1]; [9],−0.9±1.8
same,Amount of change in ADAS-Cog: memory domain,[1]; [9],−1.6±3.1
same,Amount of change in ADAS-Cog: total score,[1]; [9],−1.5±3.4
same,Adverse events,[2],no adverse events observed
same,Effect in human Alzheimer's patients,[3],no effect was observed
same,Autophagy,[4],activation of autophagy
same,Cognitive function,[4],improvement in cognitive function
same,Oxidative stress-induced nerve damage,[4],reduced oxidative stress-induced nerve damage
same,Cerebral oxygen uptake rate,"[5]; Example 1, 30 mg/day",no association
same,Cerebral oxygen metabolic rate,"[5]; Example 1, all areas, 30 mg/day",tendency for an association between RES intake and an increase in the cerebral oxygen metabolic rate
same,Cerebral blood flow in other areas,"[5]; Example 1, areas other than those of Table 3, relative to cerebellum",tendency for an association between RES intake and an increase in the cerebral blood flow
same,Amount of change in cerebral blood flow: Left callosomarginal artery area,[5]; [10],0.171 ± 0.42
same,Amount of change in cerebral blood flow: Left putamen,[5]; [10],0.19 ± 0.57
same,Amount of change in cerebral blood flow: Left thalamus,[5]; [10],0.449 ± 0.90
same,Amount of change in cerebral blood flow: Right callosomarginal artery area,[5]; [10],0.179 ± 0.34
same,Amount of change in cerebral blood flow: Right frontal lobe,[5]; [10],0.215 ± 0.35
same,Amount of change in cerebral blood flow: Right thalamus,[5]; [10],0.393 ± 0.85
same,"β, resveratrol intake vs cerebral blood flow change: Frontal circulation area",[5]; [11],0.25
same,"β, resveratrol intake vs cerebral blood flow change: Left callosomarginal artery area",[5]; [11],0.27
same,"β, resveratrol intake vs cerebral blood flow change: Left lenticular nucleus",[5]; [11],0.31
same,"β, resveratrol intake vs cerebral blood flow change: Right callosomarginal artery area",[5]; [11],0.29
same,"β, resveratrol intake vs cerebral blood flow change: Right precentral artery",[5]; [11],0.25
same,"β, resveratrol intake vs cerebral blood flow change: Thalamus, Left",[5]; [11],0.29
same,"β, resveratrol intake vs cerebral blood flow change: Thalamus, Right",[5]; [11],0.23
same,"β, resveratrol intake vs cerebral blood flow change: Frontal circulation area",[5]; [12],0.25
same,"β, resveratrol intake vs cerebral blood flow change: Left callosomarginal artery area",[5]; [12],0.24
same,"β, resveratrol intake vs cerebral blood flow change: Left lenticular nucleus",[5]; [12],0.29
same,"β, resveratrol intake vs cerebral blood flow change: Right callosomarginal artery area",[5]; [12],0.28
same,"β, resveratrol intake vs cerebral blood flow change: Right precentral artery",[5]; [12],0.25
same,"β, resveratrol intake vs cerebral blood flow change: Thalamus, Left",[5]; [12],0.29
same,"β, resveratrol intake vs cerebral blood flow change: Thalamus, Right",[5]; [12],0.24
same,Cerebral blood flow change: entire left hemisphere,[5]; [9],0.014±0.031
same,Cerebral blood flow change: entire right hemisphere,[5]; [9],0.016±0.032
same,Cerebral blood flow change: left callosomarginal artery area,[5]; [9],0.017±0.042
same,Cerebral blood flow change: left lenticular nucleus,[5]; [9],0.033±0.06
same,Cerebral blood flow change: left thalamus,[5]; [9],0.045±0.090
same,Cerebral blood flow change: right callosomarginal artery area,[5]; [9],0.018±0.034
same,Cerebral blood flow change: right frontal lobe,[5]; [9],0.019±0.033
same,Cerebral blood flow change: right precentral artery area,[5]; [9],0.021±0.035
same,Cerebral blood flow change: right thalamus,[5]; [9],0.039±0.85
same,Amount of change in MoCA: Executive function/spatial cognitive function,[6]; [7],0.35 ± 1.0
same,"β, resveratrol intake vs MoCA visuospatial cognitive function/executive function change","[6]; Example 2, multivariate analysis adjusted for age, gender, hypertension, diabetes, dyslipidemia, coronary artery disease",0.26
same,"β, resveratrol intake vs MoCA visuospatial cognitive function/executive function change","[6]; Example 2, univariate analysis",0.257
same,Amount of change in MoCA: visuospatial cognitive and executive functions,[6]; [9],0.4±0.9
same,Amount of change in total MoCA score,[6]; [9],0.4±2.6
